# Target: Recombinant KAT6A/MOZ (488-778) protein (Homo sapiens (Human), UniProt Q92794)
# Experiment: KAT6A AlphaLISA Inhibition Screening Assay
# Type: biochemical
# Conditions: for inhibition at 1 µM: read-out: Average Kat6A % inhibition @ 1 μM; for inhibition at 1 µM / Average Kat6A % inhibition @ 1 μM: 1 μM test compound; for inhibition at 10 µM: read-out: Average Kat6A % inhibition @ 10 μM; for inhibition at 10 µM / Average Kat6A % inhibition @ 10 μM: 10 μM test compound
# Protocol: The Kat6a inhibitory activity of test compounds was determined using an Alpha Screen-based detection method. The assay reactions were conducted in a volume of 10 μL in Alpha Plate, White 384 well plate (cat #6008280, Perkin Elmer). The enzymatic reactions were performed in assay buffer pH 8.0 (50 mM Tris-HCl, 0.1 mM EDTA, 0.01% Tween-20, 1 mM Dithiothreitol, 0.1% BSA (fatty acid free) and 330 nM TSA (Trichostatin A)). 10 μL reaction volume consisting of 25 nM of Recombinant KAT6A/MOZ (488-778) protein (Active motif, Catalog #81223), 400 nM Acetyl coenzyme A (Catalog #A2056, Sigma), 200 nM of Histone H3 peptide [(amino acids 1-21), biotin-labeled (BPS Biosciences, Catalog #52011)]. Test compounds were screened at different doses starting with 10 μM, 3 fold dilution and 10 point Dose response curve. Enzyme and compounds solution were pre-incubated in assay plate for 60 or 10 min at room temperature then substrate and Acetyl coenzyme A solution were added to the plate. After addition, the plate was sealed with adhesive seals and incubated for 120 minutes at room temperature.
# After 120 minutes of incubation, […] of AlphaLISA anti-acetyl-Lysine acceptor beads (Perkin Elmer, Catalog #AL143C) were added to the plate and it was incubated for 60 minutes at room temperature. Then […] of Alpha Streptavidin donor beads (Perkin Elmer, Catalog #6760002S) were added to the plate which was further incubated for 60 minutes at room temperature. After incubation, the alpha signal was recorded by using Perkin Elmer Envision multi-mode reader. Percent inhibition of enzyme activity by test compounds were determined relative to vehicle control.
# Chain of Recombinant KAT6A/MOZ (488-778) protein (Q92794 488-778): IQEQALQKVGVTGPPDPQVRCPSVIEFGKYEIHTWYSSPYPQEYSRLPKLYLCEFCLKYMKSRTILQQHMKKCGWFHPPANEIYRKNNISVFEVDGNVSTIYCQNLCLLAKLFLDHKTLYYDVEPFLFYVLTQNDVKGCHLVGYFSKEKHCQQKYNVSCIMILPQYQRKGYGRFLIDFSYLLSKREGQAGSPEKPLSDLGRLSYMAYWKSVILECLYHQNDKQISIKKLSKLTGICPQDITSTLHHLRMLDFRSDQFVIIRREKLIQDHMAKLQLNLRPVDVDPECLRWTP
inhibition at 1 µM,inhibition at 10 µM,Average Kat6A % inhibition @ 1 μM,Average Kat6A % inhibition @ 10 μM,SMILES
100%,100%,,,"COc1cc(Cn2cc(CNS(C)(=O)=O)cn2)cc2onc(NS(=O)(=O)c3ccccc3OCc3ccccc3)c12 [Syn. Ex. 37, 2-(benzyloxy)-N-(4-methoxy-6-((4-(methylsulfonamidomethyl)-1H-pyrazol-1-yl)methyl)benzo[d]isoxazol-3-yl)benzenesulfonamide]"
100%,100%,,,"COC(=O)NCc1cnn(Cc2cc3onc(NS(=O)(=O)c4cc(F)ccc4OC)c3c3c2CCCO3)c1 [Syn. Ex. 124, methyl ((1-((9-((5-fluoro-2-methoxyphenyl)sulfonamido)-3,4-dihydro-2H-chromeno[8,7-d]isoxazol-5-yl)methyl)-1H-pyrazol-4-yl)methyl)carbamate]"
100%,100%,,,"CCc1ccc(OCc2ccnc(OC)c2)c(S(=O)(=O)Nc2noc3cc(Cn4cc(CNC(=O)OC)cn4)cc(OC)c23)c1 [Syn. Ex. 95, methyl ((1-((3-((5-ethyl-2-((2-methoxypyridin-4-yl)methoxy)phenyl)sulfonamido)-4-methoxybenzo[d]isoxazol-6-yl)methyl)-1H-pyrazol-4-yl)methyl)carbamate]"
106%,104%,,,"CCc1ccc(S(=O)(=O)Nc2noc3cc(Cn4cc(CNC(=O)OC)cn4)c4c(c23)OCCC4)c(OC)c1 [Syn. Ex. 140, methyl ((1-((9-((4-ethyl-2-methoxyphenyl)sulfonamido)-3,4-dihydro-2H-chromeno[8,7-d]isoxazol-5-yl)methyl)-1H-pyrazol-4-yl)methyl)carbamate]"
93%,97%,,,"C=C(F)C(=O)NCc1cnn(Cc2cc(OC)c3c(NS(=O)(=O)c4ccccc4OCc4ccccc4)noc3c2)c1 [Syn. Ex. 36, N-((1-((3-((2-(benzyloxy)phenyl)sulfonamido)-4-methoxybenzo[d]isoxazol-6-yl)methyl)-1H-pyrazol-4-yl)methyl)-2-fluoroacrylamide]"
100%,100%,,,"C=C(F)C(=O)NCc1cnn(Cc2cc(OC)c3c(NS(=O)(=O)c4cc(CC)ccc4OCc4cnn[nH]4)noc3c2)c1 [Syn. Ex. 114, N-((1-((3-((2-((1H-1,2,3-triazol-5-yl)methoxy)-5-ethylphenyl)sulfonamido)-4-methoxybenzo[d]isoxazol-6-yl)methyl)-1H-pyrazol-4-yl)methyl)-2-fluoroacrylamide]"
74%,96%,,,"C=C(F)C(=O)NCc1cnn(Cc2cc(OC)c3c(NS(=O)(=O)c4cc(CC)ccc4OCCN)noc3c2)c1 [Syn. Ex. 76, N-((1-((3-((2-(2-aminoethoxy)-5-ethylphenyl)sulfonamido)-4-methoxybenzo[d]isoxazol-6-yl)methyl)-1H-pyrazol-4-yl)methyl)-2-fluoroacrylamide]"
100%,100%,,,"CC#CC(=O)N1Cc2cnn(Cc3cc(OC)c4c(NS(=O)(=O)c5cc(CC)ccc5OC)noc4c3)c2C1 [Syn. Ex. 11, N-(6-((5-(but-2-ynoyl)-5,6-dihydropyrrolo[3,4-c]pyrazol-1(4H)-yl)methyl)-4-methoxybenzo[d]isoxazol-3-yl)-5-ethyl-2-methoxybenzenesulfonamide]"
,,100%,94%,"CCc1cnc(OC)c(S(=O)(=O)Nc2noc3cc(Cn4cc(CNC(=O)OC)cn4)cc(OC)c23)c1 [Syn. Ex. 121, methyl ((1-((3-((5-ethyl-2-methoxypyridine)-3-sulfonamido)-4-methoxybenzo[d]isoxazol-6-yl)methyl)-1H-pyrazol-4-yl)methyl)carbamate]"
96%,100%,,,"COc1ccc(C(C)(C)C)cc1S(=O)(=O)Nc1noc2cc(Cn3cc(CNS(C)(=O)=O)cn3)cc(OC)c12 [Syn. Ex. 33, 5-(tert-butyl)-2-methoxy-N-(4-methoxy-6-((4-(methylsulfonamidomethyl)-1H-pyrazol-1-yl)methyl)benzo[d]isoxazol-3-yl)benzenesulfonamide]"
100%,100%,,,"C#CC(=O)NCc1cnn(Cc2cc(OC)c3c(NS(=O)(=O)c4cc(CC)ccc4OCc4nn[nH]n4)noc3c2)c1 [Syn. Ex. 70, N-((1-((3-((2-((2H-tetrazol-5-yl)methoxy)-5-ethylphenyl)sulfonamido)-4-methoxybenzo[d]isoxazol-6-yl)methyl)-1H-pyrazol-4-yl)methyl)propiolamide]"
10%,44%,,,"CCc1ccc(OC)c(S(=O)(=O)Nc2noc3cc(Oc4cccc(CNC(=O)OC)n4)cc(OC)c23)c1 [Syn. Ex. 106, methyl ((6-((3-((5-ethyl-2-methoxyphenyl)sulfonamido)-4-methoxybenzo[d]isoxazol-6-yl)oxy)pyridin-2-yl)methyl)carbamate]"
100%,100%,,,"C=C(F)C(=O)NCc1cnn(Cc2cc(OC)c3c(NS(=O)(=O)c4cc(C)ccc4OC)noc3c2)c1 [Syn. Ex. 89, 2-fluoro-N-((1-((4-methoxy-3-((2-methoxy-5-methylphenyl)sulfonamido)benzo[d]isoxazol-6-yl)methyl)-1H-pyrazol-4-yl)methyl)acrylamide]"
104%,91%,,,"CCc1ccc(OC)c(S(=O)(=O)Nc2noc3cc(Cn4cc(CNC(=O)OC)cn4)c(F)c(OC)c23)c1 [Syn. Ex. 141, methyl ((1-((3-((5-ethyl-2-methoxyphenyl)sulfonamido)-5-fluoro-4-methoxybenzo[d]isoxazol-6-yl)methyl)-1H-pyrazol-4-yl)methyl)carbamate]"
110%,99%,,,"CCOc1cc2c(NS(=O)(=O)c3cc(CC)ccc3OC)noc2cc1Cn1cc(CNC(=O)OC)cn1 [Syn. Ex. 142, methyl ((1-((5-ethoxy-3-((5-ethyl-2-methoxyphenyl)sulfonamido)benzo[d]isoxazol-6-yl)methyl)-1H-pyrazol-4-yl)methyl)carbamate]"
,,86%,100%,"COC(=O)NCc1cnn(Cc2cc(OC)c3c(NS(=O)(=O)c4c(OC)ccnc4OC)noc3c2)c1 [Syn. Ex. 86, methyl ((1-((3-((2,4-dimethoxypyridine)-3-sulfonamido)-4-methoxybenzo[d]isoxazol-6-yl)methyl)-1H-pyrazol-4-yl)methyl)carbamate]"
97%,98%,,,"CCc1ccc(OC)c(S(=O)(=O)Nc2noc3cc(Cn4cc(CNS(=O)(=O)CCOC)cn4)cc(OC)c23)c1 [Syn. Ex. 18, 5-ethyl-2-methoxy-N-(4-methoxy-6-((4-(((2-methoxyethyl)sulfonamido)methyl)-1H-pyrazol-1-yl)methyl)benzo[d]isoxazol-3-yl)benzenesulfonamide]"
98%,100%,,,"C=C(F)C(=O)NCc1cnn(Cc2cc(OC)c3c(NS(=O)(=O)c4cc(CC)ccc4OCCO)noc3c2)c1 [Syn. Ex. 113, N-((1-((3-((5-ethyl-2-(2-hydroxyethoxy)phenyl)sulfonamido)-4-methoxybenzo[d]isoxazol-6-yl)methyl)-1H-pyrazol-4-yl)methyl)-2-fluoroacrylamide]"
99%,100%,,,"C=C(F)C(=O)NCc1cnn(Cc2cc(OC)c3c(NS(=O)(=O)c4cc(CC)ccc4OCCNC(=O)OC)noc3c2)c1 [Syn. Ex. 79, methyl (2-(4-ethyl-2-(N-(6-((4-((2-fluoroacrylamido)methyl)-1H-pyrazol-1-yl)methyl)-4-methoxybenzo[d]isoxazol-3-yl)sulfamoyl)phenoxy)ethyl)carbamate]"
97%,100%,,,"C=C(F)C(=O)NCc1cnn(Cc2cc(OC)c3c(NS(=O)(=O)c4cc(CC)ccc4OCC(=N)NO)noc3c2)c1 [Syn. Ex. 118, N-((1-((3-((5-ethyl-2-(2-(hydroxyamino)-2-iminoethoxy)phenyl)sulfonamido)-4-methoxybenzo[d]isoxazol-6-yl)methyl)-1H-pyrazol-4-yl)methyl)-2-fluoroacrylamide]"
100%,100%,,,"CCc1ccc(OCc2nc[nH]n2)c(S(=O)(=O)Nc2noc3cc(Cn4cc(CNC(=O)OC)cn4)cc(OC)c23)c1 [Syn. Ex. 117, methyl ((1-((3-((2-((1H-1,2,4-triazol-3-yl)methoxy)-5-ethylphenyl)sulfonamido)-4-methoxybenzo[d]isoxazol-6-yl)methyl)-1H-pyrazol-4-yl)methyl)carbamate]"

SMILES,inhibition at 1 µM,inhibition at 10 µM,Average Kat6A % inhibition @ 1 μM,Average Kat6A % inhibition @ 10 μM
"COc1ccccc1S(=O)(=O)Nc1noc2cc(Cn3cc(CNS(C)(=O)=O)cn3)cc(OC)c12 [Syn. Ex. 6, 2-methoxy-N-(4-methoxy-6-((4-(methylsulfonamidomethyl)-1H-pyrazol-1-yl)methyl)benzo[d]isoxazol-3-yl) benzenesulfonamide]",,,99%,100%
